The numbers were not newly measured in patent US4197292A, “Novel amylase inhibitors” (Taisho Pharmaceutical Co., priority 1978, dated 1980), which cites them from elsewhere.

This data set relates to β-glucosidase. To be noted: prior art inhibitor.

`OC[C@H]1NC(O)[C@H](O)[C@@H](O)[C@@H]1O` (stereo partly shown) [Nojirimycin]: the “inhibitory activity to β-glucosidase (in words)” value is “has inhibitory activity”.
